Values of other authors, collected in patent US8372452B2, “Oral herbal composition for the treatment of oral candidiasis” (Piramal Life Sciences Limited, priority 2008, dated 2013).

System: oral pathogens (Enterococcus faecalis, Streptococcus salivarius, Streptococcus mitis, Streptococcus mutans, Streptococcus sobrinus, Streptococcus sanguinis and …)
Conditions: literature report, Silva M L et al. 2007

## (−)-cubebin
  activity against oral pathogens (microorganisms): exhibited activity
